Tested on: P. berghei ookinete development
Details: for % inhibition, Replicate A / % inhibition, Replicate B: primary screen at 1 μM; for IC50: read-out: Pb Ookinete development assay IC50, dose response confirmation

Compound	% inhibition, Replicate A [%]	% inhibition, Replicate B [%]	IC50 [µM]
COc1ccc(Nc2nc(C)cc(NC3CCCC3)n2)cc1 [TCMDC-133465]	51.72	31.38	–
Cc1cnc(C(=O)Nc2cccc(-c3ccc(-c4nc5cc(C(F)(F)F)ccc5[nH]4)s3)c2)cn1 [TCMDC-137028]	1.65	57.27	–
CN(C)CCCOc1ccccc1CN1CC[C@H](NC(=O)c2ccc(Cl)c(Cl)c2)C1.O=C(O)C(F)(F)F [TCMDC-140310]	-10.45	74.47	–
Cc1cc(CNCCCCCCNCc2ccc(Cl)cc2)ccc1O [TCMDC-140414]	6.85	50.55	–
Cl.N=C(N)NN=Cc1c2ccccc2c(Cl)c2c(Cl)cccc12 [TCMDC-137898]	66.37	24.36	–
Cc1nc2ccc(-c3ccc(OC(F)(F)F)cc3)cc2c(O)c1C#N [TCMDC-136129]	117.05	93.07	–
Cl.Nc1nc(N)c2c(ccc3nn(Cc4cccnc4)cc32)n1 [TCMDC-137968]	30.53	62.42	–
COc1ccc(O)c(Cc2cnc3nc(N)nc(N)c3c2C)c1.O=C(O)C(F)(F)F [TCMDC-137998]	11.48	55.44	–
CCN(CC)CCCC(C)Nc1c2ccc(Cl)cc2nc2ccc(OC)cc12.Cl.O (stereo not drawn) [TCMDC-125480]	33.29	58.69	–
O=C(Nc1cccc(C(F)(F)F)c1)c1cccc(S(=O)(=O)NCC2CCCN2CC2CCCCC2)c1.O=C(O)C(F)(F)F (stereo not drawn) [TCMDC-133687]	11.95	57.11	–
Cc1cc(Nc2cccc(C#N)c2)nc(Nc2ccccc2C)n1 [TCMDC-133471]	56.49	36.05	–
O=C(/C=C/c1ccc(Cl)c(Cl)c1)NCCCCCN1CCCN(C(=O)Nc2cc(Cl)nc(Cl)c2)CC1 [TCMDC-135888]	61.66	48.73	–
Cc1cccc2nc(-c3ccc(-c4ccc(NC(=O)NCc5cccc(F)c5)cc4)cc3)[nH]c12 [TCMDC-133294]	56.07	54.12	–
CCC[C@@H]([C@@H](CC1CCCCC1)C(=O)N[C@H](C(=O)Nc1nccs1)C(C)(C)SC)N(O)C=O [TCMDC-138113]	7.94	61.12	–
CCSc1ccccc1COc1c(C)nc(N)nc1N.Cl [TCMDC-131359]	61.82	19.87	–
COc1ccccc1-c1cccc(CNC2CCN(CC3Cn4c(=O)ccc5ccc(F)c3c54)CC2)c1.O=C(O)C(F)(F)F (stereo not drawn) [TCMDC-134411]	72.27	57.51	–
CCN(CC)CCCC(C)Nc1c(-c2ccc(C)cc2)cnc2ccccc12 (stereo not drawn) [TCMDC-142264]	53.92	8.32	–
COc1ccc2nc(-c3cc(-c4ccc(NC(=O)CN5CCOCC5)cc4)cnc3N)[nH]c2c1 [TCMDC-135373]	111.93	79.71	–
Cc1nc2ccccc2c(O)c1-c1ccc(Cl)cc1 [TCMDC-137172]	27.10	52.76	–

Compound	% inhibition, Replicate A [%]	% inhibition, Replicate B [%]	IC50 [µM]
CC(=O)Nc1cccc(CN(Cc2ccc(-c3ccc(CNCc4cccnc4)cn3)cc2)C(=O)Cc2cccnc2)c1.O=C(O)C(F)(F)F [TCMDC-141604]	63.32	20.87	–
CCCCCCNC(=O)C1Cc2c([nH]c3ccc(Br)cc23)C2(CCN(CCc3ccccc3)CC2)N1 (stereo not drawn) [TCMDC-141182]	15.53	59.10	–
C=CCc1cc(Cc2cnc(N)nc2N)cc(CCC)c1OC [TCMDC-138039]	8.79	53.34	–
CS(=O)(=O)Cc1ccc(Nc2nccc(-c3c(-c4cccc(NC(=O)c5c(F)cccc5F)c4)nn4ccccc34)n2)cc1 [TCMDC-135669]	21.89	53.61	–
Cc1[nH]cc(Br)c(=O)c1-c1ccc(Oc2ccc(OC(F)(F)F)cc2)cc1 [TCMDC-136197]	35.07	51.32	–
CCCC(CC)n1ccc2c3c(N)nc(N)nc3ccc21.CS(=O)(=O)O (stereo not drawn) [TCMDC-137948]	49.24	73.56	–
COc1cc(OC)cc(-c2nn(-c3ccc([N+](=O)[O-])cc3C#N)c(=S)n2CC2CCCO2)c1 (stereo not drawn) [TCMDC-134716]	44.85	53.94	5.46
CC(C)n1c(C(C)(C)C)cc2c3c(N)nc(N)nc3ccc21 [TCMDC-137311]	95.58	90.85	0.634
COc1ccc2nc3cc(Cl)ccc3c(Nc3ccc(C(=O)O)cc3)c2c1.Cl [TCMDC-138029]	92.30	90.70	–
COc1ccc(-c2cc(C(=O)Nc3ccc4[nH]c(-c5ccccc5)nc4c3)[nH]n2)cc1.O=C(O)C(F)(F)F [TCMDC-134399]	46.43	56.04	–
CCN(CC)CCN(Cc1ccc(-c2ccc(C(F)(F)F)cc2)cc1)C(=O)Cn1cc(CCCCc2cccc(F)c2F)c(=O)c2ccccc21.O=C(O)C(O)C(O)C(=O)O [TCMDC-141340]	60.00	20.87	–
CC(C)n1ncc2c3c(N)nc(N)nc3ccc21 [TCMDC-137866]	87.47	39.71	–
COc1ccc2nccc(NC(=O)N3CCC(NCc4cc5ccccc5[nH]4)CC3)c2n1.O=C(O)C(=O)O [TCMDC-140671]	55.02	18.69	–
COc1cc(Cc2cnc(N)nc2N)ccc1OCc1ccc(-c2csnn2)cc1 [TCMDC-138683]	55.66	28.96	–
N=C1NC(=N)N(OCCCCCCON2C(=N)NC(=N)NC2C=Cc2ccccc2)C(C=Cc2ccccc2)N1 (stereo not drawn) [TCMDC-131602]	52.81	32.33	–
Cc1[nH]c(C)c(-c2cccc(-c3ccc(OC(F)(F)F)cc3)c2)c(=O)c1Br [TCMDC-135303]	52.85	65.81	–
O=C(NCc1cccs1)[C@H](Cc1ccccc1)Nc1ccnc(NCC2CCCCC2)n1.O=C(O)C(F)(F)F [TCMDC-134708]	21.89	53.00	–
Cc1cc2c3c(N)nc(N)nc3ccc2n1C [TCMDC-137957]	66.89	77.62	–
O=C(Nc1ccccc1O)c1ccc(S(=O)(=O)c2ccc(Cl)cc2)cc1 [TCMDC-123689]	23.88	50.54	–

Compound	% inhibition, Replicate A [%]	% inhibition, Replicate B [%]	IC50 [µM]
Cc1nc(N)nc(N)c1CCCOc1ccccc1Cl [TCMDC-137929]	38.99	55.23	–
CS(=O)(=O)NCCCNCc1cccc(-c2ccc(-c3nc4ccccc4[nH]3)s2)c1.O=C(O)C(F)(F)F [TCMDC-133088]	41.67	56.04	–
CCOC(=O)c1cn(CC)c2cc(N3CCCCCC3)c(F)cc2c1=O [TCMDC-124160]	101.92	113.32	–
O=C(N[C@H]1CCN(CCc2ccc(O[C@H]3CCNC3)cc2)C1)c1ccc(Cl)c(Cl)c1.O=C(O)C(F)(F)F [TCMDC-141066]	57.79	22.51	–
COc1cc(-c2cnc(N)c(-c3nc4ccccc4[nH]3)c2)cc(OC)c1OC.Cl [TCMDC-138793]	57.35	34.54	–
C=Cc1cc(OC)c2c(c1)c(=O)oc1c2cc(OC)c2c(O)ccc([C@H]3O[C@H]([C@H](C)O)[C@H](O)[C@H]3O)c21 [TCMDC-141972]	89.48	109.41	–
O=C(CSc1nn(-c2ccccc2)c(=S)s1)c1c[nH]c2ccccc12 [TCMDC-124894]	61.81	32.04	–
COc1ccc2nccc(C(=O)NC3CCC(CCN4CCc5cc(C#N)ccc5C4)CC3)c2c1.Cl (stereo not drawn) [TCMDC-139240]	53.92	18.69	–
Cc1ccc(-c2noc(COc3ccccc3C(=O)NC3CCCC3)n2)cc1 [TCMDC-124748]	70.37	89.43	–
COc1ccc2nccc([C@@H](O)CN3CCC(NC(=O)Cc4cccc5c(Br)cccc45)CC3)c2c1 [TCMDC-141111]	36.89	51.52	–
Cl.N=C(N)NN=Cc1cc2ccccc2c2ccccc12 [TCMDC-137671]	63.22	44.77	–
Cc1nc(C)c(-c2ccc(C(=O)c3ccccc3)cc2)c(O)c1Br [TCMDC-137419]	112.31	126.66	–
COc1ccccc1CCNc1nc(C)cc(N[C@@H](Cc2ccccc2)C(=O)Nc2ccccc2)n1.O=C(O)C(F)(F)F [TCMDC-134804]	57.50	38.80	–
COc1cc(CN2CCN(c3ccnc(N(C)C4CCN(C)CC4)n3)CC2)cc(Cl)c1O [TCMDC-125096]	51.09	24.20	–
CC(=O)c1c[nH]c2ccc(/C=C/C(=O)NC3CCC(CCN4CCc5ccc(C#N)cc5CC4)CC3)cc12.Cl (stereo not drawn) [TCMDC-139781]	63.32	35.61	–
Br.CC1(C)N=C(N)N=C(N)N1OCCc1ccc2ccccc2c1 [TCMDC-131755]	66.00	52.02	–
Cl.O=C(CNC1CCCCC1)c1ccc(O)c(O)c1 [TCMDC-123961]	31.52	68.95	–
Cc1c(CNCCCNc2cc(=O)c3ccccc3[nH]2)sc(-c2ccco2)c1Br.Cl [TCMDC-141065]	4.54	52.38	–
